What was measured:
BI-2493 [1] = compound: T1, C[C@H]1CNCCN1c1nccc(-c2noc3c2CCC[C@@]32CCCc3sc(N)c(C#N)c32)n1 [BI-2493]; experiment: 1 - AUC of viability dose-response curve (sensitivity) (fraction); higher = more sensitive; settings: 5 days
Experimental: (§1)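 PRISM pooled barcoded cancer cell line viability screen (Broad Institute) with BI-2493 at 8 doses in threefold dilutions from 0.00457 to 10 µmol/L, 5-day treatment; curves fitted per cell line. IC50 is undefined (placeholder) for resistant lines. AUC is capped at 1, and sensitivity is reported as 1 − AUC.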

BI-2493 [2] = compound: T1, BI-2493; settings: 5 days
Experimental: as §1

Test System | 1 - AUC of viability dose-response curve (BI-2493 [1]) | IC50 of cell viability (BI-2493 [2]) [µM]
HKA1_SKIN | 0.111 | 4
HKGZCC_BILIARY_TRACT | 0.281 | 1.41
HL60_HAEMATOPOIETIC_AND_LYMPHOID_TISSUE | 0.089 | > 10
HLF_LIVER | 0.0644 | 7.5
HMC18_BREAST | 0.15 | 4.86
HOS_BONE | 0.0734 | 7.39
HOTHC_THYROID | 0.00917 | 9.68
HPAC_PANCREAS | 0.312 | 1.1
HPAFII_PANCREAS | 0.396 | 0.582
HPBALL_HAEMATOPOIETIC_AND_LYMPHOID_TISSUE | 0.0862 | 4.23
HS294T_SKIN | 0.0895 | 5.34
HS611T_HAEMATOPOIETIC_AND_LYMPHOID_TISSUE | < 0 | > 10
HS683_CENTRAL_NERVOUS_SYSTEM | 0.0105 | 9.89
HS729_SOFT_TISSUE | 0.101 | 8.7
HS766T_PANCREAS | 0.108 | 6.84
HS852T_SKIN | 0.00841 | 9.99
HS939T_SKIN | 0.0542 | 8.03
HS944T_SKIN | 0.103 | 3.82
HSC1_SKIN | 0.111 | 4.81
HSC2_UPPER_AERODIGESTIVE_TRACT | 0.169 | 3.64
HSC3_UPPER_AERODIGESTIVE_TRACT | 0.138 | 5.44
HSC5_SKIN | 0.126 | 5.05
HSKTC_OVARY | 0.166 | 4.41
HT3_CERVIX | 0.17 | 5.97
HT29_LARGE_INTESTINE | 0.15 | 5.08
HT55_LARGE_INTESTINE | 0.195 | 4.03

Test System | 1 - AUC of viability dose-response curve (BI-2493 [1]) | IC50 of cell viability (BI-2493 [2]) [µM]
HT115_LARGE_INTESTINE | 0.229 | 2.29
HT144_SKIN | 0.091 | 5.71
HT1080_SOFT_TISSUE | 0.209 | 3.19
HT1197_URINARY_TRACT | 0.0777 | 4.69
HT1376_URINARY_TRACT | 0.175 | 5.68
HTMMT_ENDOMETRIUM | 0.0985 | 5.79
HT_HAEMATOPOIETIC_AND_LYMPHOID_TISSUE | 0.104 | 6.79
HUG1N_STOMACH | 0.393 | 0.544
HUH1_LIVER | 0.0866 | 4.85
HUH6_LIVER | 0.0714 | 6.78
HUH7_LIVER | 0.0355 | 8.94
HUH28_BILIARY_TRACT | 0.0149 | 9.21
HUO9_BONE | 0.0106 | 9.56
HUPT3_PANCREAS | 0.182 | 5.16
HUPT4_PANCREAS | 0.147 | 3.9
IALM_LUNG | 0.317 | 1.56
ICC4_BILIARY_TRACT | 0.184 | 3.75
ICC8_BILIARY_TRACT | 0.185 | 7.67
ICC9_BILIARY_TRACT | 0.225 | 4.52
ICC10_BILIARY_TRACT | 0.0142 | 9.23
ICC12_BILIARY_TRACT | 0.0946 | 4.21
ICC137_BILIARY_TRACT | 0.116 | 7.76
IGR1_SKIN | 0.0813 | 7.02
IGR37_SKIN | 0.111 | 8.82
IGR39_SKIN | 0.0609 | 5.87
IGROV1_OVARY | 0.205 | 8.03

Test System | 1 - AUC of viability dose-response curve (BI-2493 [1]) | IC50 of cell viability (BI-2493 [2]) [µM]
IHH4_THYROID | 0.0625 | 7.16
IM95_STOMACH | 0.152 | 4.31
IPC298_SKIN | 0.0978 | 4.47
ISHIKAWAHERAKLIO02ER_ENDOMETRIUM | 0.174 | 6.65
ISTMES1_PLEURA | 0.0873 | 8.84
J82_URINARY_TRACT | 0.122 | 5.23
JAR_PLACENTA | 0.242 | 3.54
JEKO1_HAEMATOPOIETIC_AND_LYMPHOID_TISSUE | 0.0886 | 5.06
JHH4_LIVER | 0.071 | 6.96
JHH5_LIVER | 0.297 | 0.387
JHH6_LIVER | 0.0848 | 4.43
JHH7_LIVER | 0.27 | 1.67
JHOC5_OVARY | 0.139 | 5.69
JHOM1_OVARY | 0.119 | 4.83
JHOS2_OVARY | 0.0182 | 9.64
JHUEM7_ENDOMETRIUM | 0.101 | 5.02
JIMT1_BREAST | 0.115 | 5.98
JL1_PLEURA | 0.13 | > 10
JMSU1_URINARY_TRACT | 0.00212 | > 10
JOPACA1_PANCREAS | 0.107 | 4.96
JR_SOFT_TISSUE | 0.275 | 1.44
JURLMK1_HAEMATOPOIETIC_AND_LYMPHOID_TISSUE | 0.169 | 3.42
JVM3_HAEMATOPOIETIC_AND_LYMPHOID_TISSUE | 0.105 | 9.45
K029AX_SKIN | 0.058 | 7.21

Source: the supplement of paper PMC11962398
